Test results taken from paper PMC10504751, “Chalcone/1,3,4-Oxadiazole/Benzimidazole hybrids as novel anti-proliferative agents inducing apoptosis and inhibiting EGFR & BRAFV^600E” (BMC Chemistry, 2023).

Legend:
HL-60(TB) = test: NCI one-dose SRB anti-proliferative screen; type: cell-based; settings: Homo sapiens; HL-60(TB) (Leukemia), NCI one dose 10 µM; read-out: Cell growth inhibition %
In short: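 Activity reflects a single-point exposure at 10 µM, with cell mass determined by a sulforhodamine B dye assay.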

COLO 205 = test: NCI one-dose SRB anti-proliferative screen; type: cell-based; settings: Homo sapiens; COLO 205 (Colon Cancer), NCI one dose 10 µM; read-out: Cell growth inhibition %
In short: (§1)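 Colorimetric sulforhodamine B assay after treatment with compound at one concentration, 10 µM.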

DU-145 = test: NCI one-dose SRB anti-proliferative screen; type: cell-based; settings: Homo sapiens; DU-145 (Prostate Cancer), NCI one dose 10 µM; read-out: Cell growth inhibition %
In short: as §1

A549/ATCC = test: NCI one-dose SRB anti-proliferative screen; type: cell-based; settings: Homo sapiens; A549/ATCC (Non-Small Cell Lung Cancer), NCI one dose 10 µM; read-out: Cell growth inhibition %
In short: as §1

SNB-75 = test: NCI one-dose SRB anti-proliferative screen; type: cell-based; settings: Homo sapiens; SNB-75 (CNS Cancer), NCI one dose 10 µM; read-out: Cell growth inhibition %
In short: as §1

OVCAR-5 = test: NCI one-dose SRB anti-proliferative screen; type: cell-based; settings: Homo sapiens; OVCAR-5 (Ovarian Cancer), NCI one dose 10 µM; read-out: Cell growth inhibition %
In short: as §1

SW-620 = test: NCI one-dose SRB anti-proliferative screen; type: cell-based; settings: Homo sapiens; SW-620 (Colon Cancer), NCI one dose 10 µM; read-out: Cell growth inhibition %
In short: as §1

SN12C = test: NCI one-dose SRB anti-proliferative screen; type: cell-based; settings: Homo sapiens, SN 12C (Renal Cancer), NCI one dose 10 µM, read-out: Cell growth inhibition %
In short: as §1

OVCAR-3 = test: NCI one-dose SRB anti-proliferative screen; type: cell-based; settings: Homo sapiens; OVCAR-3 (Ovarian Cancer), NCI one dose 10 µM; read-out: Cell growth inhibition %
In short: as §1

NCI/ADR-RES = test: NCI one-dose SRB anti-proliferative screen; type: cell-based; settings: Homo sapiens; NCI/ADR-RES (Ovarian Cancer), NCI one dose 10 µM; read-out: Cell growth inhibition %
In short: as §1

HS 578T = test: NCI one-dose SRB anti-proliferative screen; type: cell-based; settings: Homo sapiens; HS 578T (Breast Cancer), NCI one dose 10 µM; read-out: Cell growth inhibition %
In short: as §1

HOP-92 = test: NCI one-dose SRB anti-proliferative screen; type: cell-based; settings: Homo sapiens; HOP-92 (Non-Small Cell Lung Cancer), NCI one dose 10 µM; read-out: Cell growth inhibition %
In short: as §1

MALME-3M = test: NCI one-dose SRB anti-proliferative screen; type: cell-based; settings: Homo sapiens; MALME-3M (Melanoma), NCI one dose 10 µM; read-out: Cell growth inhibition %
In short: as §1

SK-MEL-28 = test: NCI one-dose SRB anti-proliferative screen; type: cell-based; settings: Homo sapiens; SK-MEL-28 (Melanoma), NCI one dose 10 µM; read-out: Cell growth inhibition %
In short: as §1

SF-268 = test: NCI one-dose SRB anti-proliferative screen; type: cell-based; settings: Homo sapiens; SF-268 (CNS Cancer), NCI one dose 10 µM; read-out: Cell growth inhibition %
In short: as §1

LOX IMVI = test: NCI one-dose SRB anti-proliferative screen; type: cell-based; settings: Homo sapiens, LOX IMIV (Melanoma), NCI one dose 10 µM, read-out: Cell growth inhibition %
In short: as §1

UACC-257 = test: NCI one-dose SRB anti-proliferative screen; type: cell-based; settings: Homo sapiens; UACC-257 (Melanoma), NCI one dose 10 µM; read-out: Cell growth inhibition %
In short: as §1

CCRF-CEM = test: NCI one-dose SRB anti-proliferative screen; type: cell-based; settings: Homo sapiens; CCRF-CEM (Leukemia), NCI one dose 10 µM; read-out: Cell growth inhibition %
In short: as §1

HCT-15 = test: NCI one-dose SRB anti-proliferative screen; type: cell-based; settings: Homo sapiens; HCT-15 (Colon Cancer), NCI one dose 10 µM; read-out: Cell growth inhibition %
In short: as §1

PC-3 = test: NCI one-dose SRB anti-proliferative screen; type: cell-based; settings: Homo sapiens; PC-3 (Prostate Cancer), NCI one dose 10 µM; read-out: Cell growth inhibition %
In short: as §1

KM12 = test: NCI one-dose SRB anti-proliferative screen; type: cell-based; settings: Homo sapiens; KM12 (Colon Cancer), NCI one dose 10 µM; read-out: Cell growth inhibition %
In short: as §1

SK-MEL-2 = test: NCI one-dose SRB anti-proliferative screen; type: cell-based; settings: Homo sapiens; SK-MEL-2 (Melanoma), NCI one dose 10 µM; read-out: Cell growth inhibition %
In short: as §1

RPMI-8226 = test: NCI one-dose SRB anti-proliferative screen; type: cell-based; settings: Homo sapiens; RPMI-8226 (Leukemia), NCI one dose 10 µM; read-out: Cell growth inhibition %
In short: as §1

OVCAR-4 = test: NCI one-dose SRB anti-proliferative screen; type: cell-based; settings: Homo sapiens; OVCAR-4 (Ovarian Cancer), NCI one dose 10 µM; read-out: Cell growth inhibition %
In short: as §1

ACHN = test: NCI one-dose SRB anti-proliferative screen; type: cell-based; settings: Homo sapiens; ACHN (Renal Cancer), NCI one dose 10 µM; read-out: Cell growth inhibition %
In short: as §1

SF-539 = test: NCI one-dose SRB anti-proliferative screen; type: cell-based; settings: Homo sapiens; SF-539 (CNS Cancer), NCI one dose 10 µM; read-out: Cell growth inhibition %
In short: as §1

UACC-62 = test: NCI one-dose SRB anti-proliferative screen; type: cell-based; settings: Homo sapiens; UACC-62 (Melanoma), NCI one dose 10 µM; read-out: Cell growth inhibition %
In short: as §1

HT29 = test: NCI one-dose SRB anti-proliferative screen; type: cell-based; settings: Homo sapiens, HT-29; HT29 (Colon Cancer), NCI one dose 10 µM; read-out: Cell growth inhibition %
In short: as §1

NCI-H460 = test: NCI one-dose SRB anti-proliferative screen; type: cell-based; settings: Homo sapiens; NCI-H460 (Non-Small Cell Lung Cancer), NCI one dose 10 µM; read-out: Cell growth inhibition %
In short: as §1

M14 = test: NCI one-dose SRB anti-proliferative screen; type: cell-based; settings: Homo sapiens; M14 (Melanoma), NCI one dose 10 µM; read-out: Cell growth inhibition %
In short: as §1

MDA-MB-468 = test: NCI one-dose SRB anti-proliferative screen; type: cell-based; settings: Homo sapiens; MDA-MB-468 (Breast Cancer), NCI one dose 10 µM; read-out: Cell growth inhibition %
In short: as §1

COc1ccc(-c2nc3cc(-c4nnc(SCC(=O)Nc5ccc(C(=O)/C=C/c6ccc(Cl)cc6)cc5)o4)ccc3[nH]2)cc1OC [Compound 7q, 2-{5-[2-(3,4-Dimethoxyphenyl)-1 H-benzo[d]imidazol-5-yl]-1,3,4-oxadiazol-2-ylthio}-N-{4-[(E)-3-(4-chlorophenyl)acryloyl]phenyl}acetamide]
inhibition at 10 µM (HL-60(TB)): 11.3% | inhibition at 10 µM (COLO 205): 0% | inhibition at 10 µM (DU-145): 0% | inhibition at 10 µM (A549/ATCC): 0% | inhibition at 10 µM (SNB-75): 0% | inhibition at 10 µM (OVCAR-5): 4.8% | inhibition at 10 µM (SW-620): 0% | inhibition at 10 µM (SN12C): 5.1% | inhibition at 10 µM (OVCAR-3): 0% | inhibition at 10 µM (NCI/ADR-RES): 0% | inhibition at 10 µM (HS 578T): 3.98% | inhibition at 10 µM (HOP-92): 0% | inhibition at 10 µM (MALME-3M): 4.86% | inhibition at 10 µM (SK-MEL-28): 0% | inhibition at 10 µM (SF-268): 0% | inhibition at 10 µM (LOX IMVI): 96.8% | inhibition at 10 µM (UACC-257): 0% | inhibition at 10 µM (CCRF-CEM): 0% | inhibition at 10 µM (HCT-15): 2.92% | inhibition at 10 µM (PC-3): 2.29% | inhibition at 10 µM (KM12): 0% | inhibition at 10 µM (SK-MEL-2): 0% | inhibition at 10 µM (RPMI-8226): 24.5% | inhibition at 10 µM (OVCAR-4): 0% | inhibition at 10 µM (ACHN): 5.74% | inhibition at 10 µM (SF-539): 16.2% | inhibition at 10 µM (UACC-62): 1.95% | inhibition at 10 µM (HT29): 0% | inhibition at 10 µM (NCI-H460): 0% | inhibition at 10 µM (M14): 0% | inhibition at 10 µM (MDA-MB-468): 0% | melting point: 194 to 195 °C
